Test results as given in patent publication US20200240980A1, “METHOD FOR DELAYED RECTIFIER CURRENT ENHANCEMENT, CHARACTERIZATION, AND ANALYSIS IN HUMAN INDUCED PLURIPOTENT STEM CELLS” (The Research Foundation for The State University of New York, priority 2017, published 2020).

System: IKr expression in human iPSCDCMs
Assay: IKr expression in human iPSCDCMs after 48 hour treatment with Endo-Porter transfected morpholino AS oligonucleotide, whole-cell patch clamp
Format: cell-based
Description: Our approach is based on studies showing that morpholino anti-sense (AS) oligonucleotides increased HERG expression in HEK293 cells. We examined the ability of these endoporter (Endo-Porter delivery system) transfected morpholino AS oligonucleotides to increase IKr expression in human iPSCDCMs. The morpholino AS oligonucleotide Endo-Porter, is a proprietary weak-base amphiphilic peptide that was designed to deliver non-ionic substances into the cytosol/nuclear compartment of cells by an endocytosis-mediated process. Following a 48 hour treatment with morpholino AS oligonucleotide (alpha2NS 05Z) significant increase (p<0.05) in IKr expression was observed compared to naïve/vehicle and an inverse morpholino AS oligonucleotide control (MPL ZN9DSZ INV) (Morpholino AS oligonucleotide (n=28): 0.29±0.04 pA/pF, INV control (n=7): 0.11±0.08 pA/pF). […] In naïve/vehicle treated cells we observed a near equal frequency of cells expressing current densities <0.2 pA/pF and >0.2 pA/pF. However, following morpholino AS oligonucleotide treatment cells expressing current densities >0.2 pA/pF increased to 71% p<0.05 as shown in FIG. 4.

5′-CAGAACACAGTAGTGAATCAAAACC-3′ (all phosphorodiamidate morpholino (PMO)) [alpha2NS 05Z, morpholino anti-sense oligonucleotide specific for a polyadenylation signal in Intron 9 of the KCNH2 gene]
cells expressing IKr current densities >0.2 pA/pF (hiPSCDCMs after morpholino AS oligonucleotide treatment, p<0.05, near equal frequency in naïve/vehicle cells, FIG. 4): 71% | IKr current density (hiPSCDCMs, 48 hour treatment, mean ± spread, n=28 (morpholino AS), n=7 (INV control)): 0.29±0.04 pA/pF | distribution of IKr current densities ≤0.2 pA/pF or >0.2 pA/pF versus naïve/vehicle cells (hiPSCDCMs, p<0.05, FIG. 4): significant shift
